Experimental data published in paper PMC9792776 (Frontiers in Pharmacology, 2022).
Like-named read-outs stand apart in the source and are kept apart here.

Tests used:
[1] = pKa; assay type: physicochemical
Text: TABLE 1 Model development and model parameters. | column: Value

[2] = In vitro Caco-2 cell permeability; assay type: in vitro ADME; conditions: human
Text: (§1) The first-order absorption model has different absorption rate constants (ka) and fraction available from dosage form (fa) to simulate absorption processes in fasting and fed states. […] Caco-2 (human colorectal adenocarcinoma) cells are used to model the intestinal epithelial barrier. The Simcyp (Version 19.0, Certara Inc., Sheffield, UK) minimal PBPK, which treats all organs other than the intestine and liver as a single compartment ([Rowland Yeo et al., 2010]), was selected, along with a single adjusting compartment (SAC) distribution model. The SAC is a nonphysiologic compartment that permits adjustment to the drug concentration profile in the systemic compartment ([Ke et al., 2016]).

[3] = PBPK model parameters optimized or assumed (Simcyp minimal PBPK); design: species or system human
Text: as §1

[4] = target: CYP3A4 (Homo sapiens, UniProt P08684); experiment: Clinical DDI study with itraconazole and rifampicin in healthy American (White) subjects; conditions: for Cmax: plasma, oral, Cmax Obs.
Procedure: After a 3-day washout period, they were pretreated with 200 mg of oral itraconazole once daily for 4 days to inhibit CYP3A4 (Days 5–8). […] After a 3-day washout, subjects were pretreated with 600 mg of oral rifampicin once daily for 7 days to induce CYP3A4 (Days 5–11). […] Blood samples were collected immediately before and after drug administration at 0.5, 1, 2, 4, 6, 8, 12, 24, 48, 72, and 96 h.

[5] = target: T1, OATP1B3 (Homo sapiens, UniProt Q9NPD5); experiment: Transporter substrate/inhibitor assessment, OATP1B3; assay type: in vitro ADME
T1 sequence (Q9NPD5 1-702): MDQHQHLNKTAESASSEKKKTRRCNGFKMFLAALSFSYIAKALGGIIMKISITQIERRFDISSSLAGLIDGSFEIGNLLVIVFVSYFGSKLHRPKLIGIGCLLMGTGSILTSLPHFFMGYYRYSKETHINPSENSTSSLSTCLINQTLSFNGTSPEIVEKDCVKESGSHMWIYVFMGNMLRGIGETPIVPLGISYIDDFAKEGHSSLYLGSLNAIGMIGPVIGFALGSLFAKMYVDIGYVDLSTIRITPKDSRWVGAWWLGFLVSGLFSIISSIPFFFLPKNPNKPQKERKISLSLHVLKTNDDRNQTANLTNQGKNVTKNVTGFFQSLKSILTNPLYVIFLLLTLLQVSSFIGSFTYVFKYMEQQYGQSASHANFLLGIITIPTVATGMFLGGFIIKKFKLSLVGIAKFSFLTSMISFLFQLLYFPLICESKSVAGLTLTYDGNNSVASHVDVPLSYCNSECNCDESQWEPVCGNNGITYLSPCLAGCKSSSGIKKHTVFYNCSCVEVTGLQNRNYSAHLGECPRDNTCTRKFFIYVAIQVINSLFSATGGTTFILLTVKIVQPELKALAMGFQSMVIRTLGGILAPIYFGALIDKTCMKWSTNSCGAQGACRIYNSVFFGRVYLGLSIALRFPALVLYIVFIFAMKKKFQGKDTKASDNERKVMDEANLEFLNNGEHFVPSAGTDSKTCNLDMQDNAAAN

[6] = target: T2, OAT3 (Homo sapiens, UniProt Q8TCC7); experiment: Transporter substrate/inhibitor assessment, OAT3; assay type: in vitro ADME
T2 sequence (Q8TCC7 1-542): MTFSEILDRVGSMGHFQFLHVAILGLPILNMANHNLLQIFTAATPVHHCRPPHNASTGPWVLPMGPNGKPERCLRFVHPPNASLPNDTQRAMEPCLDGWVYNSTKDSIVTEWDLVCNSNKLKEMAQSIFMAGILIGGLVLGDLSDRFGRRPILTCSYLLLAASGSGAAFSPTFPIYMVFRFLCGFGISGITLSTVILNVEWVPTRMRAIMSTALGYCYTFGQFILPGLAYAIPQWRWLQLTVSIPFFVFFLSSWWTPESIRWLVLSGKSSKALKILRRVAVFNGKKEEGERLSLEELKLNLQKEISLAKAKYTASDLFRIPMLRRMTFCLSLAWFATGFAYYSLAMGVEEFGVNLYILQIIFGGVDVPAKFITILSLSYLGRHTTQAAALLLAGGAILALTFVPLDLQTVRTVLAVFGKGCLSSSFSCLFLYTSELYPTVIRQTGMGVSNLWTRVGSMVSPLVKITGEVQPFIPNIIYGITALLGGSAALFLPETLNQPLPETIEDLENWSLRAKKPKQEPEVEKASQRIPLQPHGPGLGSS

[7] = in vitro; conditions: human
[8] = Fasting, optimized based on observed data
[9] = Fed, optimized based on observed data
[10] = optimized based on observed data

CYP3A4, sequence (P08684 whole entry): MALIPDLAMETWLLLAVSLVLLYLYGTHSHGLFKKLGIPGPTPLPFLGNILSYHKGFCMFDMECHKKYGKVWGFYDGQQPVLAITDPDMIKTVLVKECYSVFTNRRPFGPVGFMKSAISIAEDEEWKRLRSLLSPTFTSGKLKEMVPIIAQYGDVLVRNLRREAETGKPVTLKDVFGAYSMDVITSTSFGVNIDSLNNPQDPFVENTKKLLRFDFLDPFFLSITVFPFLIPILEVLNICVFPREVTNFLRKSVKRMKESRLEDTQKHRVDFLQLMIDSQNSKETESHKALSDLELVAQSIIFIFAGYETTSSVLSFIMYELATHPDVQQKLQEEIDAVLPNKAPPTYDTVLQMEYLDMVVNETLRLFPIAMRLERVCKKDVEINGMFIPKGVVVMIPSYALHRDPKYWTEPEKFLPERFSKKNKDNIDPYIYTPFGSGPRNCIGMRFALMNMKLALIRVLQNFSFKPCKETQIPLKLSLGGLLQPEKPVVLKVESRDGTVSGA

Compound `Cc1ccc(C(=O)Nc2ccc(CN3CCN(C)CC3)c(C(F)(F)F)c2)cc1C#Cc1cnc2[nH]ncc2c1` [olverembatinib, Olverembatinib] has a pKa ([1]; read-out: pKa 1) of 2.9, a pKa ([1]; read-out: pKa 2) of 10.9 and a Papp [2] of 0.08 ×10⁻⁶ cm/s. For the same compound, the fa [3, 8] was 0.574 (Fasting), the ka [3, 8] was 0.213 (Fasting) 1/h and the fa [3, 9] was 0.8 (Fed). The ka [3, 9] was 0.136 (Fed) 1/h, the fraction unbound ([3]; human, microsomal incubation, assumed equal to fu,p, read-out: fu,mic/fu,inc) was 0.0005 and the Kp ([3]; human, optimized based on observed data, read-out: Kp Scalar) was 6.01. For the same compound, the “ISEF CYP2C9” value ([3]; optimized based on fmCYP2C9) was 1.2938, the “ISEF CYP3A4” value ([3]; optimized based on fmCYP3A4) was 0.7761 and the SAC kin [3, 10] was 0.0471 h⁻¹. The SAC kout [3, 10] was 0.0177 h⁻¹, the Vsac [3, 10] was 38.02 L/kg and the “AUC Obs.” value ([4]; White healthy volunteers, fed, 20 mg SD, olverembatinib alone) was 125 h?ng/mL. The “AUC Obs.” value ([4]; White healthy volunteers, fed, 40 mg SD, olverembatinib alone) was 302 h?ng/mL, the “AUC Obs.” value ([4]; coadministration with itraconazole, healthy White volunteers) was 330 h?ng/mL and the “AUC Obs.” value ([4]; coadministration with rifampicin, healthy White volunteers) was 73.0 h?ng/mL. For the same compound, the “AUC decrease after rifampicin administration” value ([4]; human, in vivo) was 76%, the “AUC increase after itraconazole treatment” value ([4]; human, in vivo, 200 mg) was 163% and the Cmax ([4]; human, 20 mg, White healthy volunteers, fed, 20 mg SD, olverembatinib alone) was 5.26 ng/mL. It also gave a Cmax ([4]; human, 40 mg, White healthy volunteers, fed, 40 mg SD, olverembatinib alone) of 12.7 ng/mL, a Cmax ([4]; human, coadministration with itraconazole, healthy White volunteers) of 9.14 ng/mL and a Cmax ([4]; human, coadministration with rifampicin, healthy White volunteers) of 4.54 ng/mL. For the same compound, the “substrate or inhibitor of OATP1B3” value [5] was “neither a substrate nor inhibitor”, the “substrate or inhibitor of OAT3” value [6] was “neither a substrate nor inhibitor” and the microsomal CLint [7] was 5.26 µL/min/mg.
